Assay results: ChEMBL document CHEMBL5331060, “Bisindole natural products: A vital source for the development of new anticancer drugs” (Eur J Med Chem, 2022)
pIC50: −log10 of the molar value. ≈ marks a conversion by molar mass, not a printed value.

Tests used:
[1] = system: KB; experiment: Antiproliferative activity against drug-sensitive human KB cells assessed as inhibition of cell growth; assay type: functional, cell-based
[2] = Antiproliferative activity against vincristine-resistant human KB cells assessed as inhibition of cell growth; assay type: functional, cell-based
[3] = system: HL-60; experiment: Antiproliferative activity against human HL-60 cells assessed as inhibition of cell growth incubated for 48 hrs by WST-1 assay; assay type: functional, cell-based; settings: HL-60, 48 h
[4] = system: K562; experiment: Antiproliferative activity against human K562 cells assessed as inhibition of cell growth incubated for 48 hrs by WST-1 assay; assay type: functional, cell-based; settings: K562, 48 h
[5] = Antiproliferative activity against mouse […] cells assessed as inhibition of cell growth; assay type: functional, cell-based
[6] = system: HepG2; experiment: Antiproliferative activity against human HepG2 cells assessed as inhibition of cell growth by MTT assay; assay type: functional, cell-based
[7] = system: L1210; experiment: Antiproliferative activity against mouse L1210 cells assessed as inhibition of cell growth incubated for 24 hrs by MTT assay; assay type: functional, cell-based; settings: L1210, 24 h
[8] = system: AGS; experiment: Antiproliferative activity against human AGS cells assessed as inhibition of cell growth incubated for 24 hrs by MTT assay; assay type: functional, cell-based
[9] = Antiproliferative activity against human BC cells assessed as inhibition of cell growth incubated for 24 hrs by MTT assay; assay type: functional, cell-based
[10] = system: KB; experiment: Antiproliferative activity against human KB cells assessed as inhibition of cell growth incubated for 72 hrs by neutral red based colorimetric assay; assay type: functional
[11] = system: MCF7; experiment: Antiproliferative activity against human MCF7 cells assessed as inhibition of cell growth incubated for 24 hrs by MTT assay; assay type: functional, cell-based; settings: MCF7, 24 h
[12] = system: SMMC-7721; experiment: Antiproliferative activity against human SMMC-7721 cells assessed as inhibition of cell growth incubated for 48 hrs by MTS assay; assay type: functional, cell-based; settings: SMMC-7721, 48 h
[13] = system: HL-60; experiment: Antiproliferative activity against human HL-60 cells assessed as inhibition of cell growth incubated for 48 hrs by MTS assay; assay type: functional, cell-based; settings: HL-60, 48 h
[14] = system: A549; experiment: Antiproliferative activity against human A549 cells assessed as inhibition of cell growth incubated for 48 hrs by MTS assay; assay type: functional, cell-based; settings: A549, 48 h
[15] = system: MCF7; experiment: Antiproliferative activity against human MCF7 cells assessed as inhibition of cell growth incubated for 48 hrs by MTS assay; assay type: functional, cell-based; settings: MCF7, 48 h
[16] = system: SW480; experiment: Antiproliferative activity against human SW480 cells assessed as inhibition of cell growth incubated for 48 hrs by MTS assay; assay type: functional, cell-based; settings: SW480, 48 h
[17] = system: LoVo; experiment: Antiproliferative activity against human LoVo cells assessed as inhibition of cell growth by MTT assay; assay type: functional, cell-based
[18] = system: MCF7; experiment: Antiproliferative activity against human MCF7 cells assessed as inhibition of cell growth by MTT assay; assay type: functional, cell-based
[19] = system: SW480; experiment: Antiproliferative activity against human SW480 cells assessed as inhibition of cell growth incubated for 48 hrs by MTT assay; assay type: functional, cell-based; settings: SW480, 48 h
[20] = system: HeLa; experiment: Antiproliferative activity against human HeLa cells assessed as inhibition of cell growth incubated for 48 hrs by MTT assay; assay type: functional, cell-based
[21] = system: HT-29; experiment: Antiproliferative activity against human HT-29 cells assessed as inhibition of cell growth incubated for 48 hrs by MTS assay; assay type: functional, cell-based; settings: HT-29, 48 h
[22] = system: MCF7; experiment: Antiproliferative activity against human MCF7 cells assessed as inhibition of cell growth incubated for 48 hrs by MTT assay; assay type: functional, cell-based; settings: MCF7, 48 h
[23] = system: HeLa; experiment: Antiproliferative activity against human HeLa cells assessed as inhibition of cell growth incubated for 6 hrs; assay type: functional, cell-based
[24] = system: HeLa; experiment: Antiproliferative activity against human HeLa cells assessed as inhibition of cell growth incubated for 24 hrs; assay type: functional, cell-based

SMILES: CC[C@H]1[C@@H]2CCN3CC[C@@]4(C5=C2C[C@@]2(CN5c5ccccc54)C4=Nc5ccccc5[C@]45CCN4CC[C@H]2[C@H](CC)[C@@H]45)[C@@H]13
- pIC50 [1]: 6.24
- pIC50 [2]: 6.24

SMILES: C/C=C1/CN2[C@H]3Cc4c([nH]c5ccc(O)c([C@H]6Cn7c8c(c9ccccc97)CCN7CC=C[C@@]6(CC)[C@H]87)c45)[C@@H]2C[C@@H]1[C@]3(CO)C(=O)OC
- pIC50 [1]: 6.24
- pIC50 [2]: 6.24

SMILES: CCC(=O)[C@H](O)[C@@H]1CN(C=O)CCc2c([nH]c3ccccc23)[C@@](C(=O)OC)(c2cc3c(cc2OC)N(C)[C@H]2[C@@](O)(C(=O)OC)[C@H](OC(C)=O)[C@]4(CC)C=CCN5CC[C@]32[C@@H]54)C1
- pIC50 [3]: < 4.00
- pIC50 [4]: < 4.00

SMILES: Brc1ccc2c(-c3c[nH]c(-c4c[nH]c5ccccc45)n3)c[nH]c2c1 [NORTOPSENTIN C]
- IC50 [5]: 1.7 µg/mL (≈ 4.51 µM)

SMILES: CC[C@]12C=CCN3CC[C@@]4(c5cc([C@@]6(C(=O)OC)C[C@@H]7CC(=O)N(CCc8c6[nH]c6ccccc86)C7)c(OC)cc5N(C)[C@H]4[C@@](O)(C(=O)OC)C1)[C@@H]32
- pIC50 [3]: 5.04
- pIC50 [4]: 5.03

SMILES: C/C=C1/CN(C)[C@H]2Cc3c([nH]c4ccccc34)[C@H](c3c(OC)ccc4c5c6n(c34)C[C@@H]3C[C@@H](CC)[C@@H](NCC5)[C@@]6(C(=O)OC)C3)C[C@H]1[C@]2(CO)C(=O)OC
- pIC50 [6]: 4.42

SMILES: O=C(C1=NC(c2c[nH]c3cc(Br)ccc23)CN1)c1c[nH]c2ccccc12 (centres undefined) [SPONGOTINE A]
- IC50 [7]: 1.1 µg/mL (≈ 2.7 µM)
- IC50 [8]: 1.1 µg/mL (≈ 2.7 µM)
- IC50 [9]: 10.7 µg/mL (≈ 26.3 µM)

SMILES: C/C=C1/CN2CC[C@@]34c5cc(OC)c(-c6cc7c8c(n(C)c7cc6OC)[C@@H]6[C@H]7O[C@@H](C)[C@H](CN6C(=O)C(C)C)[C@H]7[C@H]8C(=O)OC)c(C)c5N[C@@]23CC[C@H]1[C@H]4C(=O)OC
- pIC50 [10]: 5.30

SMILES: O=C1C[C@@H]2c3cc(O)c(O)cc3[C@@]3(Nc4ccccc4C3=O)[C@@]23C(=O)c2ccccc2N13
- pIC50 [11]: 4.49

SMILES: CC[C@]12C=C([C@H]3C=C[C@@]4(CC)CC(C(=O)OC)=C5Nc6ccccc6[C@@]56CCN3[C@@H]46)CN3CC[C@]4(C(=C(C(=O)OC)C1)Nc1ccccc14)[C@@H]32
- pIC50 [12]: 4.88
- pIC50 [13]: 4.88
- pIC50 [14]: 4.88
- pIC50 [15]: 4.88
- pIC50 [16]: 4.88

SMILES: CC[C@]1(O)C[C@H]2C[C@](C(=O)OC)(c3cc4c(cc3OC)N(C)[C@@H]3[C@]45CCN4CC=C[C@@](CC)(C[C@]3(O)C(=O)OC)[C@H]45)c3[nH]c4ccccc4c3CC[N+]([O-])(C2)C1
- pIC50 [17]: < 4.00
- pIC50 [6]: 4.55
- pIC50 [18]: 4.37

SMILES: CC[C@@]12C=C(C(=O)OC)C3Nc4cc(OC)c(O)cc4[C@@]34CCN([C@@H]3c5cc6c(cc5O[C@@H]3[C@H]1O)NC1=C(C(=O)OC)C[C@]3(CC)[C@@H]5O[C@@H]5CN5CC[C@@]16[C@@H]53)[C@@H]24 (some centres undefined)
- pIC50 [19]: 5.85
- pIC50 [20]: 5.85
- pIC50 [12]: < 4.40
- pIC50 [21]: < 4.40
- pIC50 [14]: < 4.40
- pIC50 [22]: 5.85

SMILES: O=C1C[C@H]2c3ccc(O)c(O)c3[C@]3(Nc4ccccc4C3=O)[C@]23C(=O)c2ccccc2N13
- pIC50 [11]: 4.11

SMILES: N[C@H](CNC(=O)C(=O)c1c[nH]c2ccccc12)c1c[nH]c2cc(Br)ccc12
- pIC50 [23]: 3.78
- pIC50 [24]: 3.84

SMILES: Brc1ccc2c(-c3nc(-c4c[nH]c5ccccc45)c[nH]3)c[nH]c2c1 [NORTOPSENTIN B]
- IC50 [5]: 7.8 µg/mL (≈ 20.7 µM)

SMILES: CC[C@@]12CC(C(=O)OC)=C3Nc4cc5c(cc4[C@@]34CCN(C[C@@H]3O[C@@H]31)[C@@H]24)[C@@H]1[C@H](O5)[C@@H](O)[C@@]2(CC)CC(C(=O)OC)=C3Nc4c(cc(O)c(OC)c4OC)[C@@]34CCN1[C@@H]24
- pIC50 [19]: 5.85
- pIC50 [20]: 5.85
- pIC50 [22]: 5.85

SMILES: CC[C@]12CN3CCc4c([nH]c5ccccc45)[C@@](C(=O)OC)(c4cc5c(cc4OC)N(C)[C@H]4[C@@](O)(C(=O)OC)[C@H](OC(C)=O)[C@]6(CC)C=CCN7CC[C@]54[C@@H]76)C[C@@H](C3)[C@H]1O2 [VINLEUROSINE]
- pIC50 [3]: 4.25
- pIC50 [4]: 4.25

SMILES: O=C1C[C@H]2c3cc(O)c(O)cc3[C@]3(Nc4ccccc4C3=O)[C@]23C(=O)c2ccccc2N13
- pIC50 [11]: 4.50

SMILES: NC[C@@H](NC(=O)C(=O)c1c[nH]c2ccccc12)c1c[nH]c2cc(Br)ccc12
- pIC50 [23]: < 3.70
- pIC50 [24]: < 3.70

SMILES: CC[C@]12C=C[C@H]([C@@]34CN5CC[C@]67C(=C(C(=O)OC)C[C@](CC)([C@@H]3O4)[C@H]56)Nc3cc(OC)ccc37)N3CC[C@]4(C(=C(C(=O)OC)C1)Nc1cc(OC)ccc14)[C@@H]32
- pIC50 [12]: 4.88
- pIC50 [13]: 4.88
- pIC50 [14]: 4.88
- pIC50 [15]: 4.88
- pIC50 [16]: 4.88

SMILES: CC[C@]12C=C[C@H](C3=C[C@@]4(CC)CC(C(=O)OC)=C5Nc6ccccc6[C@@]56CCN([C@@H]3CC(C)=O)[C@@H]46)N3CC[C@]4(C(=C(C(=O)OC)C1)Nc1ccccc14)[C@@H]32
- pIC50 [12]: 4.88
- pIC50 [13]: 4.88
- pIC50 [14]: 4.88
- pIC50 [15]: 4.88
- pIC50 [16]: 4.88

SMILES: CC[C@]12C=C([C@@H]3C=C[C@@]4(CC)CC(C(=O)OC)=C5Nc6ccccc6[C@@]56CCN3[C@@H]46)[C@@H](CC(C)=O)N3CC[C@]4(C(=C(C(=O)OC)C1)Nc1ccccc14)[C@@H]32
- pIC50 [12]: 4.88
- pIC50 [13]: 4.88
- pIC50 [14]: 4.88
- pIC50 [15]: 4.88
- pIC50 [16]: 4.88

SMILES: CC[C@]12CN3CC[C@@]45C(=Nc6ccccc64)[C@@](C(=O)OC)(c4cc6c(cc4OC)N(C)[C@H]4[C@@](O)(C(=O)OC)[C@H](OC(C)=O)[C@]7(CC)C=CCN8CC[C@]64[C@@H]87)C[C@H]([C@H]1O2)[C@H]35
- pIC50 [3]: 4.25
- pIC50 [4]: 4.25

SMILES: CC/C1=C/N(C=O)CCc2c([nH]c3ccccc23)[C@@](C(=O)OC)(c2cc3c(cc2OC)N(C)[C@H]2[C@@](O)(C(=O)OC)[C@H](OC(C)=O)[C@]4(CC)C=CCN5CC[C@]32[C@@H]54)CC(=O)C1
- pIC50 [3]: 4.25
- pIC50 [4]: 4.25

SMILES: CCC(=O)C[C@@H]1CN(C=O)CCc2c([nH]c3ccccc23)[C@@](C(=O)OC)(c2cc3c(cc2OC)N(C)[C@@H]2[C@]34CCN3CC=C[C@@](CC)(C[C@]2(O)C(=O)OC)[C@H]34)C1
- pIC50 [3]: 4.25
- pIC50 [4]: 4.25

SMILES: CC[C@]12C=CCN3CC[C@]4(C(=C(C(=O)OC)C1)Nc1cc5c(cc14)[C@@H]1[C@H](O5)[C@@H](O)[C@@]4(CC)CC(C(=O)OC)=C5Nc6c(ccc(OC)c6OC)[C@@]56CCN1[C@@H]46)[C@@H]32
- pIC50 [19]: 5.85
- pIC50 [20]: 5.85
- pIC50 [12]: 6.52
- pIC50 [21]: 6.12
- pIC50 [14]: 5.47
- pIC50 [22]: 5.85

SMILES: C/C=C1/CN2CC[C@@]34c5cc(OC)c(-c6cc7c8c(n(C)c7cc6OC)[C@@H]6[C@H]7O[C@@H](C)[C@H](CN6C(=O)C(C)C)[C@H]7[C@H]8C(=O)OC)c(C)c5N(C)[C@@]23CC[C@H]1[C@H]4C(=O)OC
- pIC50 [10]: 5.22

SMILES: CC[C@]1(O)C[C@@H]2CN(CCc3c([nH]c4ccccc34)[C@@](C(=O)OC)(c3cc4c(cc3OC)N(C)[C@H]3[C@@](O)(C(=O)OC)[C@H](OC(C)=O)[C@]5(CC)C=CCN6CC[C@]43[C@@H]65)C2)C1 [VINBLASTINE]
- pIC50 [10]: 8.10

SMILES: CC[C@@]12CC(C(=O)OC)=C3Nc4cc5c(cc4[C@@]34CCN(C[C@H]3O[C@H]31)[C@@H]24)[C@@H]1[C@H](O5)[C@@H](O)[C@@]2(CC)CC(C(=O)OC)=C3Nc4c(cc(O)c(OC)c4OC)[C@@]34CC[N+]1([O-])[C@@H]24 (some centres undefined)
- pIC50 [19]: 5.85
- pIC50 [20]: 5.85
- pIC50 [22]: 5.85

SMILES: Brc1ccc2c(-c3c[nH]c(-c4c[nH]c5cc(Br)ccc45)n3)c[nH]c2c1 [NORTOPSENTIN A]
- IC50 [5]: 7.6 µg/mL (≈ 16.7 µM)
